What was measured:
Type in all cases: physicochemical
[1] = intrinsic dissolution rate; settings: pH 2.0 buffer
[2] = physical and chemical stability under stress conditions
solubility = assay: solubility
[3] = moisture sorption/desorption measurements; settings: based on moisture sorption/desorption measurements

Cc1nc2ccccc2c(-c2ccc3c4c(ccnc24)CCO3)c1[C@H](OC(C)(C)C)C(=O)O (atropisomer, axis not shown) [Type A]
intrinsic dissolution rate [1]: 4528 μg/[cm^2×min]
physical and chemical stability [2]: exhibits physical and chemical stability
solubility (solubility; pH 2, simulated gastric fluid): > 24 mg/mL
solubility (solubility; pH 4.5, aqueous buffer): > 24 mg/mL
solubility (solubility; pH 6.8, aqueous buffer): > 24 mg/mL
hygroscopicity [3]: non-hygroscopic

Reference: patent publication US20140094486A1, “SOLID STATE FORMS OF HIV INHIBITOR” (Gilead Sciences, Inc., priority 2011, published 2014)
